# Assay results taken from PubChem BioAssay (NCI).
#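 GI50 marks 50% less growth. TGI denotes the concentration required for complete inhibition of growth.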
# What was measured:
# Assay in all cases: growth of human tumour cells (NCI), 384-well format
# [1] = test system: A498 renal
# [2] = test system: A549 NSCLC
# [3] = test system: ACHN renal
# [4] = test system: BT-549 breast
# [5] = test system: CAKI-1 renal
# [6] = test system: COLO 205 colon
# [7] = test system: DU-145 prostate
# [8] = test system: EKVX NSCLC
# [9] = test system: HCC-2998 colon
# [10] = test system: HCT-116 colon
# [11] = test system: HCT-15 colon
# [12] = test system: HL-60(TB) leukemia
# [13] = test system: HOP-62 NSCLC
# [14] = test system: HOP-92 NSCLC
# [15] = test system: HS 578T breast
# [16] = test system: HT29 colon
# [17] = test system: IGROV1 ovarian
# [18] = test system: KM12 colon
# [19] = test system: LOX IMVI melanoma
# [20] = test system: M14 melanoma
# [21] = test system: MALME-3M melanoma
# [22] = test system: MCF7 breast
# [23] = test system: MDA-MB-231 breast
# [24] = test system: MDA-MB-435 melanoma
# [25] = test system: MDA-MB-468 breast
# [26] = test system: MOLT-4 leukemia
# [27] = test system: NCI-H226 lung
# [28] = test system: NCI-H23 lung
# [29] = test system: NCI-H322M lung
# [30] = test system: NCI-H460 NSCLC
# [31] = test system: NCI-H522 lung
# [32] = test system: NCI/ADR-RES ovarian
# [33] = test system: OVCAR-3 ovarian
# [34] = test system: OVCAR-4 ovarian
# [35] = test system: OVCAR-5 ovarian
# [36] = test system: OVCAR-8 ovarian
# [37] = test system: PC-3 prostate
# [38] = test system: RPMI-8226 leukemia
# [39] = test system: RXF 393 renal
# [40] = test system: SF-268 CNS
# [41] = test system: SF-295 CNS
# [42] = test system: SF-539 CNS
# [43] = test system: SK-MEL-28 melanoma
# [44] = test system: SK-MEL-5 melanoma
# [45] = test system: SK-OV-3 ovarian
# [46] = test system: SN12C renal
# [47] = test system: SNB-19 CNS
# [48] = test system: SNB-75 CNS
# [49] = test system: SR leukemia
# [50] = test system: T-47D breast
# [51] = test system: TK-10 renal
# [52] = test system: U251 glioblastoma
# [53] = test system: UACC-257 melanoma
# [54] = test system: UACC-62 melanoma
structure (smiles),measurement,setting,value
Cn1ncc(Cl)c1-c1cc(C(=O)N[C@H](CN)Cc2cccc(F)c2)sc1Cl,GI50,[1],126 nM
same,TGI,[1],1240 nM
same,GI50,[2],4010 nM
same,TGI,[2],16400 nM
same,GI50,[3],3460 nM
same,TGI,[3],15500 nM
same,GI50,[4],819 nM
same,TGI,[4],2450 nM
same,GI50,[5],2760 nM
same,TGI,[5],14000 nM
same,GI50,[6],1120 nM
same,TGI,[6],2360 nM
same,GI50,[7],3380 nM
same,TGI,[7],14600 nM
same,GI50,[8],2940 nM
same,TGI,[8],12500 nM
same,GI50,[9],558 nM
same,TGI,[9],2010 nM
same,GI50,[10],2280 nM
same,TGI,[10],7530 nM
same,GI50,[11],1760 nM
same,TGI,[11],13100 nM
same,GI50,[12],1320 nM
same,TGI,[12],2700 nM
same,GI50,[13],2310 nM
same,TGI,[13],6220 nM
same,GI50,[14],2090 nM
same,TGI,[14],8600 nM
same,GI50,[15],1010 nM
same,TGI,[15],2560 nM
same,GI50,[16],1150 nM
same,TGI,[16],2890 nM
same,GI50,[17],43.6 nM
same,TGI,[17],534 nM
same,GI50,[18],532 nM
same,TGI,[18],2210 nM
same,GI50,[19],1750 nM
same,TGI,[19],3230 nM
same,GI50,[20],1710 nM
same,TGI,[20],3150 nM
same,GI50,[21],1300 nM
same,TGI,[21],2590 nM
same,GI50,[22],460 nM
same,TGI,[22],2000 nM
same,GI50,[23],5950 nM
same,TGI,[23],18800 nM
same,GI50,[24],2010 nM
same,TGI,[24],5430 nM
same,GI50,[25],187 nM
same,TGI,[25],1950 nM
same,GI50,[26],150 nM
same,TGI,[26],1120 nM
same,GI50,[27],2930 nM
same,TGI,[27],9220 nM
same,GI50,[28],3200 nM
same,TGI,[28],11700 nM
same,GI50,[29],2150 nM
same,TGI,[29],10900 nM
same,GI50,[30],427 nM
same,TGI,[30],2670 nM
same,GI50,[31],1900 nM
same,TGI,[31],5360 nM
same,GI50,[32],7070 nM
same,TGI,[32],19900 nM
same,GI50,[33],2020 nM
same,TGI,[33],10500 nM
same,GI50,[34],6000 nM
same,TGI,[34],18900 nM
same,GI50,[35],1620 nM
same,TGI,[35],4290 nM
same,GI50,[36],2110 nM
same,TGI,[36],5320 nM
same,GI50,[37],300 nM
same,TGI,[37],2690 nM
same,GI50,[38],1760 nM
same,TGI,[38],3180 nM
same,GI50,[39],680 nM
same,TGI,[39],2560 nM
same,GI50,[40],4500 nM
same,TGI,[40],15300 nM
same,GI50,[41],1070 nM
same,TGI,[41],2330 nM
same,GI50,[42],337 nM
same,TGI,[42],2140 nM
same,GI50,[43],1330 nM
same,TGI,[43],2670 nM
same,GI50,[44],1390 nM
same,TGI,[44],2700 nM
same,GI50,[45],737 nM
same,TGI,[45],8040 nM
same,GI50,[46],2670 nM
same,TGI,[46],14400 nM
same,GI50,[47],1740 nM
same,TGI,[47],10200 nM
same,GI50,[48],449 nM
same,TGI,[48],3660 nM
same,GI50,[49],1350 nM
same,TGI,[49],2640 nM
same,GI50,[50],274 nM
same,TGI,[50],2050 nM
same,GI50,[51],1180 nM
same,TGI,[51],5470 nM
same,GI50,[52],1110 nM
same,TGI,[52],2430 nM
same,GI50,[53],1460 nM
same,TGI,[53],2790 nM
same,GI50,[54],1290 nM
same,TGI,[54],2970 nM
